Data taken from patent US20240115705A1, “Regulation of Butyrophilin subfamily 3 member A1 (BTN3A1, CD277)” (The J. Gladstone Institutes, a testamentary trust …, priority 2021, published 2024).

Assays:
Assay type in all cases: cell-based, human
[1] = test system: BTN2A1 transcripts; assay: RT-qPCR of drug-treated Daudi-Cas9 cells, BTN2A1; conditions: 80 PM, 72 hours, normalized to ACTB and DMSO
Description: (§1) For measurement on Daudi-Cas9 KOs, samples were collected at 13 days after lentiviral transduction. For measurements on drug-treated WT Daudi-Cas9 cells, 180 μL of Daudi-Cas9 cells were seeded in a round-bottom 96-well plate at 275,000 cells/mL. All surrounding wells were filled with 200 μL of sterile PBS or water. With four replicates per treatment, cells were treated with 20 μL of AICAR (final concentration 0.5 mM), Compound 991 (final concentration 80 PM), DMSO, or water. The cells were collected for RT-qPCR measurements after 72 hours of incubation. RNA was extracted from approximately 70,000 cells per sample using the Quick-RNA 96 Kit (Zymo Research) or Direct-zol RNA Microprep Kit (Zymo) according to the manufacturer's protocol without the optional on-column DNase I treatment. According to the manufacturer's protocol, 1 μL of RNA was immediately processed using the Maxima First Strand cDNA Synthesis Kit for RT-qPCR with the dsDNase treatment (Thermo Fisher). Two cDNA synthesis reactions, in addition to a reverse transcriptase minus (RT−) negative control reaction, were performed for each biological replicate. […] Ct values across the three technical replicates for each sample were assessed for significant outliers resulting from technical failures (any samples in triplicate with a standard deviation above 0.2 were assessed) and subsequently averaged. […]

[2] = test system: BTN3A; assay: Inhibitor dose response, surface BTN3A by flow cytometry in WT Daudi-Cas9 cells; conditions: 72 hours, complete RPMI, vs vehicle
Description: Daudi-Cas9 cells (180 μL) were seeded at 275,000 cells/mL in cRPMI in round-bottom 96-well plates. Twenty μL of zoledronate, rotenone (MedChemExpress), oligomycin A (Neta Scientific), FCCP (MedChemExpress), antimycin A (Neta Scientific), AICAR (Sigma), 2-DG (Sigma), Compound 991 (Selleck Chemical), A-769662 (Sigma), ethanol (vehicle), or DMSO (vehicle, at dilutions matching the treatment) at various concentrations were added to the cells. Plate edge wells were filled with 200 μL of sterile water or PBS. The cells were grown at 37° C. for 72 hours, and stained with APC-conjugated anti-human CD277 antibody (clone BT3.1, 1:50 dilution)(Miltenyi Biotec) and 7-AAD (1:150 dilution) (Tonbo). The cells were then analyzed on the Attune NxT flow cytometer.

[3] = test system: BTN3A2 transcripts; assay: RT-qPCR of drug-treated Daudi-Cas9 cells, BTN3A2; conditions: 80 PM, 72 hours, normalized to ACTB and DMSO
Description: as §1

[4] = test system: BTN3A1 transcripts; assay: RT-qPCR of drug-treated Daudi-Cas9 cells, BTN3A1; conditions: 80 PM, 72 hours, normalized to ACTB and DMSO
Description: as §1

[5] = test system: Daudi-Cas9 cells; assay: γδ TCR tetramer staining (G115 Vγ9Vδ2 TCR clone) of Daudi-Cas9 cells; conditions: WT Daudi-Cas9 cells, 80 μM, 72 hours
From the text: The G115 Vγ9Vδ2 TCR clone tetramer was generated using the following methods. The G115 γ-[…] chain sequence (Davodeau et al. J. Immunol. 151, 1214-1223 (1993)) was cloned into the pAcGP67A vector with a C-terminal acidic zipper, and the G115 δ-chain sequence (Davodeau et al. (1993)) as cloned into the pAcGP67A vector with a C-terminal AviTag followed by a basic zipper. Zippers stabilized the TCR complex. The TCR was expressed in the High Five baculovirus insect-cell expression system and purified via affinity chromatography over a Ni-NTA column. TCRs were biotinylated and biotinylation was confirmed using a TrapAvidin SDS-PAGE assay. The G115 TCR was then further purified using size-exclusion chromatography (Superdex200 100/300 GL column, GE Healthcare) and purity was confirmed via SDS-PAGE. Tetramers were generated by incubating biotinylated TCR with streptavidin conjugated to the PE fluorophore.
Daudi-Cas9 KO cells were analyzed 13 and 14 days post-lentiviral transduction. WT Daudi-Cas9 cells were analyzed after being cultured for 72 hours with 0.5 mM AICAR, 80 μM Compound 991, DMSO (vehicle control at the concentration matching Compound 991), or nothing. […] Stained cells were analyzed on the Attune NxT flow cytometer.

Cc1ccc(Oc2nc3cc(-c4ccc5c(ccn5C)c4)c(Cl)cc3[nH]2)cc1C(=O)O [Compound 991]
BTN2A1 transcript level by qPCR [1]: transcriptionally upregulated
surface BTN3A (MFI) [2]: Upregulation of surface BTN3A
BTN3A2 transcript level by qPCR [3]: transcriptionally upregulated
BTN3A1 transcript level by qPCR [4]: transcriptionally upregulated
staining with G115 Vγ9Vδ2 TCR tetramer compared to vehicle control-treated cells [5]: about five times higher
